Data from ChEMBL document CHEMBL5244219, “Recent developments of quinolone-based derivatives and their activities against Escherichia coli” (Eur J Med Chem, 2018).
In brackets after ≈: the same amount, converted by molar mass. One block for each compound: values may come before it.

Tests used:
[1] = tested on: Escherichia coli; test: Antibacterial activity against Escherichia coli DC0 assessed as bacterial growth inhibition by agar dilution method; format: functional
[2] = tested on: Escherichia coli; test: Potency index, ratio of ceftazidime MIC to compound IC50 for antibacterial activity against Escherichia coli DC0; format: functional
[3] = tested on: Escherichia coli; test: Antibacterial activity against Escherichia coli DC2 assessed as bacterial growth inhibition by agar dilution method; format: functional
[4] = tested on: Escherichia coli; test: Potency index, ratio of ceftazidime MIC to compound IC50 for antibacterial activity against Escherichia coli DC2; format: functional
[5] = AUC in marmoset at 3 mg/kg, iv; format: ADME, organism-based; set-up: dose 3 mg/kg, route iv; conditions: callitrichinae sp., in vivo
[6] = Half life in marmoset at 3 mg/kg, iv; format: ADME, organism-based; conditions: callitrichinae sp., in vivo
[7] = tested on: Escherichia coli; test: Antibacterial activity against Escherichia coli assessed as bacterial growth inhibition by broth microdilution method; format: functional
[8] = Cmax in mouse at 20 mg/kg, po; format: ADME, organism-based; set-up: dose 20 mg/kg, route po; conditions: in vivo
[9] = Half life in mouse at 20 mg/kg, po; format: ADME, organism-based; conditions: in vivo
[10] = tested on: Escherichia coli; test: Antibacterial activity against Escherichia coli KC-14 assessed as bacterial growth inhibition; format: functional
[11] = AUC(0 to infinity) in mouse at 20 mg/kg, po; format: ADME, organism-based; set-up: dose 20 mg/kg, route po; conditions: in vivo
[12] = tested on: Escherichia coli; test: Antibacterial activity against Escherichia coli KC-14 infected in po dosed mouse assessed as bacterial growth inhibition; format: functional
[13] = tested on: Escherichia coli; test: Antibacterial activity against Escherichia coli ATCC 35218 assessed as bacterial growth inhibition incubated for 18 hrs by agar dilution method; format: functional
[14] = tested on: Escherichia coli; test: Antibacterial activity against Escherichia coli K-12 C600 assessed as bacterial growth inhibition; format: functional
[15] = tested on: Escherichia coli; test: Antibacterial activity against Escherichia coli assessed as zone of inhibition at 5 ug per disc; format: functional; conditions: read-out: DIZ
[16] = tested on: Escherichia coli; test: Antibacterial activity against Escherichia coli assessed as bacterial growth inhibition incubated for 18 to 20 hrs by agar dilution method; format: functional; conditions: time 18-20 hrs
[17] = tested on: Escherichia coli; test: Antibacterial activity against Escherichia coli assessed as bacterial growth inhibition incubated for 24 hrs by agar streak dilution method; format: functional
[18] = tested on: Escherichia coli; test: Antibacterial activity against Escherichia coli assessed as bacterial growth inhibition incubated for 18 hrs by twofold serial dilution assay; format: functional
[19] = tested on: Escherichia coli; test: Antibacterial activity against Escherichia coli assessed as bacterial growth inhibition; format: functional
[20] = tested on: Escherichia coli; test: Antibacterial activity against Escherichia coli NCDC 134 assessed as bacterial growth inhibition; format: functional
[21] = tested on: Escherichia coli; test: Antibacterial activity against Escherichia coli JM109 assessed as bacterial growth inhibition; format: functional
[22] = tested on: Escherichia coli; test: Antibacterial activity against Escherichia coli ATCC 700603 assessed as bacterial growth inhibition by agar dilution method; format: functional
[23] = tested on: Escherichia coli; test: Antibacterial activity against Escherichia coli assessed as bacterial growth inhibition by agar dilution method; format: functional
[24] = target: DNA gyrase (Escherichia coli, UniProt P0AES4+P0AES6); test: Inhibition of Escherichia coli DNA gyrase; format: protein-complex assay
[25] = tested on: Escherichia coli; test: Antibacterial activity against Escherichia coli DC0 assessed as bacterial growth inhibition; format: functional
[26] = tested on: Escherichia coli; test: Antibacterial activity against Escherichia coli ES142 assessed as bacterial growth inhibition; format: functional
[27] = tested on: Escherichia coli; test: Antibacterial activity against Escherichia coli DC2 assessed as bacterial growth inhibition; format: functional
[28] = tested on: Escherichia coli; test: Antibacterial activity against Escherichia coli NCTC 10419 assessed as bacterial growth inhibition; format: functional
[29] = tested on: Escherichia coli; test: In vivo antibacterial activity against Escherichia coli NCTC 10419 infected in po dosed CF-mouse assessed as bacterial growth inhibition; format: functional, organism-based
[30] = tested on: Escherichia coli; test: Potency index, ratio of norfloxacin MIC to compound IC50 for antibacterial activity against Escherichia coli JM109; format: functional
[31] = tested on: Escherichia coli; test: Potency index, ratio of norfloxacin MIC to compound IC50 for antibacterial activity against Escherichia coli DH52; format: functional
[32] = tested on: Escherichia coli; test: Potency index, ratio of ciprofloxacin MIC to compound IC50 for antibacterial activity against Escherichia coli JM109; format: functional
[33] = tested on: Escherichia coli; test: Potency index, ratio of ciprofloxacin MIC to compound IC50 for antibacterial activity against Escherichia coli DH52; format: functional; conditions: time 24 hrs
[34] = tested on: Escherichia coli; test: Antibacterial activity against Escherichia coli DH52 assessed as bacterial growth inhibition; format: functional
[35] = tested on: Escherichia coli; test: Antibacterial activity against Escherichia coli ATCC 25922 infected in iv dosed mouse assessed as bacterial growth inhibition; format: functional
[36] = tested on: Escherichia coli; test: Antibacterial activity against Escherichia coli H560 assessed as bacterial growth inhibition; format: functional
[37] = tested on: Escherichia coli; test: Antibacterial activity against Escherichia coli 2010-05 assessed as bacterial growth inhibition measured after 24 hrs by agar dilution method; format: functional
[38] = tested on: Escherichia coli; test: Antibacterial activity against Escherichia coli assessed as bacterial growth inhibition by microdilution method; format: functional
[39] = tested on: Escherichia coli; test: Antibacterial activity against Escherichia coli TolC assessed as bacterial growth inhibition; format: functional
[40] = tested on: Escherichia coli; test: In vivo antibacterial activity against Escherichia coli H560 infected in sc dosed CD-1 mouse assessed as bacterial growth inhibition; format: functional; conditions: read-out: PD50
[41] = tested on: Escherichia coli; test: Antibacterial activity against Escherichia coli NIHJ JC-2 assessed as bacterial growth inhibition; format: functional
[42] = tested on: Escherichia coli; test: In vivo antibacterial activity against Escherichia coli H560 infected in po dosed CD-1 mouse assessed as bacterial growth inhibition; format: functional; conditions: read-out: PD50
[43] = tested on: Escherichia coli; test: Antibacterial activity against Escherichia coli 2010-29 assessed as bacterial growth inhibition measured after 24 hrs by agar dilution method; format: functional
[44] = tested on: Escherichia coli; test: Antibacterial activity against Escherichia coli ATCC 25922 assessed as bacterial growth inhibition; format: functional
[45] = tested on: Escherichia coli; test: Antibacterial activity against clinical isolate Escherichia coli assessed as bacterial growth inhibition incubated for 24 hrs by agar dilution method; format: functional
[46] = tested on: Escherichia coli; test: Antibacterial activity against Escherichia coli assessed as bacterial growth inhibition incubated for 18 hrs by agar dilution method; format: functional
[47] = Escherichia coli, KC-14, po, read-out: ED50

SMILES: CC(C)(O/N=C(\C(=O)N[C@@H]1C(=O)N2C(C(=O)[O-])=C(C[n+]3ccccc3)CS[C@H]12)c1csc(N)n1)C(=O)O [CEFTAZIDIME]
MIC [1]: 0.06 µg/mL (≈ 0.11 µM)
AUC [5]: 14000 ng·h/mL
MIC [3]: 0.06 µg/mL (≈ 0.11 µM)
half-life [6]: 0.7 h

SMILES: COc1c(N2CCN(C)CC2)c(F)cc2c(=O)c(C(=O)O)c3n(c12)C(CF)S3 (stereo not given)
Cmax [8]: 3200 ng/mL
half-life [9]: 1.2 h
MIC [10]: 0.025 µg/mL (≈ 0.0608 µM)
AUC(0-inf) [11]: 3500 ng·h/mL
ED50 [12, 47]: 0.76 mg/kg

SMILES: CC1COc2c(N3CCN(C)CC3)c(F)cc3c(=O)c(C(=O)O)cn1c23 (stereo not given) [OFLOXACIN]
MIC [14]: 0.2 µg/mL (≈ 0.553 µM)
zone of inhibition at 5 µg/disc [15]: 22 mm
MIC [10]: 0.1 µg/mL (≈ 0.277 µM)
ED50 [12]: 0.55 mg/kg
ED50 [12, 47]: 1.1 mg/kg

SMILES: CCn1cc(C(=O)O)c(=O)c2cc(F)c(N3CCNCC3)cc21 [NORFLOXACIN]
MIC [16]: 0.31 µg/mL (≈ 0.971 µM)
MIC [17]: 6.25 µg/mL (≈ 19.6 µM)
MIC [18]: 0.25 µg/mL (≈ 0.783 µM)
MIC [19]: 0.1 µg/mL (≈ 0.313 µM)
MIC [20]: 25 µg/mL (≈ 78.3 µM)
MIC [21]: 1 µg/mL (≈ 3.13 µM)
MIC [22]: 4 µg/mL (≈ 12.5 µM)

SMILES: C[C@H]1NCc2cc(-c3ccc4c(=O)c(C(=O)O)cn(C5CC5)c4c3OC(F)F)ccc21 [GARENOXACIN]
MIC90 [23]: 4 µg/mL (≈ 9.38 µM)

SMILES: C[C@H]1COc2cc(N3CC[C@@H](C(C)(C)N)C3)cc3c(=O)c(C(=O)O)cn1c23
IC50 [24]: 8.62 µM
MIC [25]: 0.063 µg/mL (≈ 0.17 µM)
MIC [26]: 0.063 µg/mL (≈ 0.17 µM)
MIC [27]: 0.063 µg/mL (≈ 0.17 µM)

SMILES: CN1CCN(c2cc3c(cc2F)c(=O)c(C(=O)O)c2n3C(CF)S2)CC1 (stereo not given)
Cmax [8]: 4400 ng/mL
half-life [9]: 1.5 h
MIC [10]: 0.05 µg/mL (≈ 0.131 µM)
AUC(0-inf) [11]: 6900 ng·h/mL
ED50 [12, 47]: 0.85 mg/kg

SMILES: CN1CCN(c2cc3c(cc2F)c(=O)c(C(=O)O)c2n3CCS2)CC1
MIC [14]: 0.2 µg/mL (≈ 0.55 µM)
MIC [10]: 0.2 µg/mL (≈ 0.55 µM)

SMILES: CN1CCN(c2cc3c(cc2F)c(=O)c(C(=O)O)cn3-c2ccc(O)cc2)CC1
ED50 [35]: 0.75 mg/kg

SMILES: CC1Sc2c(C(=O)O)c(=O)c3cc(F)c(N4CCN(C)CC4)cc3n21 (stereo not given)
Cmax [8]: 940 ng/mL
half-life [9]: 2.8 h
MIC [10]: 0.025 µg/mL (≈ 0.0688 µM)
AUC(0-inf) [11]: 2600 ng·h/mL
ED50 [12, 47]: 0.97 mg/kg

SMILES: C[C@H](N)[C@@H]1CCN(c2cc3c4c(c2)c(=O)c(C(=O)O)cn4[C@@H](C)CO3)C1
IC50 [24]: 17.9 µM
MIC [25]: 0.063 µg/mL (≈ 0.176 µM)
MIC [26]: 0.063 µg/mL (≈ 0.176 µM)
MIC [27]: 0.063 µg/mL (≈ 0.176 µM)

SMILES: Cc1c(N2C[C@@H](F)[C@@H](C3(N)CC3)C2)c(F)c(N)c2c(=O)c(C(=O)O)cn([C@@H]3C[C@@H]3F)c12 [DQ-113]
MIC [36]: ≤ 0.003 µg/mL

SMILES: O=C(O)c1cn(C2CC2)c2cc(N3CCNCC3)c(F)cc2c1=O [CIPROFLOXACIN]
MIC [37]: 64 µg/mL (≈ 193 µM)
MIC90 [23]: 4 µg/mL (≈ 12.1 µM)
MIC [38]: ≤ 0.03 µg/mL
MIC [39]: 8.21 µg/mL (≈ 24.8 µM)
MIC [18]: ≤ 0.015 µg/mL
MIC [19]: 0.025 µg/mL (≈ 0.0754 µM)
MIC [28]: 0.0011 µg/mL (≈ 0.00332 µM)
ED50 [40]: 0.3 mg/kg
MIC [41]: 0.0063 µg/mL (≈ 0.019 µM)
ED50 [42]: 1 mg/kg
MIC [20]: 40 µg/mL (≈ 121 µM)
MIC [36]: ≤ 0.003 µg/mL
EC50 [29]: 1.25 mg/kg
ED50 [12, 47]: 0.45 mg/kg
MIC [43]: 64 µg/mL (≈ 193 µM)

SMILES: C[C@H]1COc2c(N3CCN(C)CC3)c(F)cc3c(=O)c(C(=O)O)cn1c23.C[C@H]1COc2c(N3CCN(C)CC3)c(F)cc3c(=O)c(C(=O)O)cn1c23.O [LEVOFLOXACIN]
MIC [37]: 32 µg/mL
MIC90 [23]: 4 µg/mL
MIC90 [45]: 32 µg/mL
MIC [43]: 32 µg/mL

SMILES: COc1c(N2C[C@@H](N)C3(CC3)C2)c(F)cc2c(=O)c(C(=O)O)cn([C@@H]3C[C@@H]3F)c12
MIC [46]: ≤ 0.006 µg/mL

Continued, in another order:

MIC [1]: 0.008 µg/mL (≈ 0.0122 µM)
MIC [3]: 0.008 µg/mL (≈ 0.0122 µM)
SMILES: CCO/N=C(\C(=O)N[C@@H]1C(=O)N2C(C(=O)O)=C(CNC(=O)c3cn(CC)c4cc(O)c(O)cc4c3=O)CSC12)c1csc(N)n1 (stereo in doubt)
Ratio [2]: 8
Ratio [4]: 8

MIC [7]: 0.0625 µg/mL (≈ 0.251 µM)
SMILES: CCn1cc(C(=O)NN)c(=O)c2cc(F)ccc21

MIC [13]: < 0.008 µg/mL
SMILES: COc1ccccc1CO/N=C1\CCN(c2c(F)cc3c(=O)c(C(=O)O)cn(C4CC4)c3c2OC)CC1N (stereo not given)

MIC [28]: 0.0002 µg/mL (≈ 0.000257 µM)
SMILES: COc1cc(Cc2cnc(/N=C3\C(=O)N(CN4CCN(c5cc6c(cc5F)c(=O)c(C(=O)O)cn6C5CC5)CC4)c4ccc(C)cc43)nc2N)cc(OC)c1OC
EC50 [29]: 0.62 mg/kg

MIC [21]: 0.125 µg/mL (≈ 0.197 µM)
MIC [34]: 0.125 µg/mL (≈ 0.197 µM)
SMILES: Cc1c(N2CCN(Cc3nc4ccccc4n3Cc3ccc(Cl)cc3Cl)CC2)c(F)cc2c(=O)c(C(=O)O)cn(C3CC3)c12
Ratio [30]: 2
Ratio [31]: 2
Ratio [32]: 2
Ratio [33]: 2

MIC [44]: ≤ 0.06 µg/mL
SMILES: C[C@@H](O)[C@H]1C(=O)N2C(C(=O)O)=C(COC(=O)N[C@H]3CCN(c4c(F)cc5c(=O)c(C(=O)O)cn(C6CC6)c5c4F)C3)S[C@H]12

MIC [7]: 0.0625 µg/mL (≈ 0.162 µM)
SMILES: CCn1cc(C(=O)NNS(=O)(=O)c2ccc(C)cc2)c(=O)c2ccccc21
